{"source": "patent US6265390A", "about": "“Methods for expressing nucleic acid sequences using nucleic acid constructs comprising hypoxia response elements” (Oxford Biomedica (UK) Limited, priority 1994, dated 2001)", "key": {"[1]": {"test_system": "MCF-7 wild-type and thymidine phosphorylase transfectant clones", "assay": "Drug sensitivity of clones -4, -7, -12, -16, +4 compared with wild type", "format": "cell-based, human", "conditions": "FIG. 6", "excerpt": "(§1) Human breast cancer cells of the cell line MCF-7 were transfected with a gene for thymidine phosphorylase. […] The gene is suitable for linking up with hypoxically-inducible promoters/enhancers.\n(§2) Results of drug sensitivity experiments are shown in FIGS. 3-7. -7, -4, -12, +4 and +16 are all derivatives of MCF-7 which have been transfected with the thymidine phosphorylase gene.\n(§3) Note that there is a log scale and therefore the IC50 (the concentration of drug required to inhibit growth by 50%) is more than 100 times lower for the transfectants -12 and -4. Therefore, the expression of one gene at a higher level can make these cells 100 times more sensitive to chemotherapy. Clearly there is variation depending on the level of expression and therefore we want to be able to switch on as high as possible. […] This means that it is the activation step that is important rather than downstream events."}, "[2]": {"test_system": "MCF-7(-4) cells transfected with thymidine phosphorylase gene", "assay": "Drug sensitivity of thymidine phosphorylase transfectant -4", "format": "cell-based, human", "conditions": "survival curve, FIG. 3", "excerpt": "as §1, §2, §3"}, "[3]": {"test_system": "control (Wt) non-transfected HT1080 cells and transfectant cells (9-3C, M3)", "assay": "Drug sensitivity after hypoxic or normoxic treatment, control and transfectants", "format": "cell-based", "conditions": "16 hours exposure, 24 hours drug, 96 hour growth delay", "experimental": "(§4) Transfected cells (9-3C and M3) as described in Example 9 were tested for sensitivity to 5-FC. Cells were subjected to hypoxic exposure (16 hours), followed by exposure to 5-FC or 5-FU (24 hours), followed by a 96 hour growth delay."}, "[4]": {"test_system": "endogenous human PGK-1 gene expression in HepG2 cells", "assay": "RNA analysis of endogenous PGK-1 gene expression", "format": "cell-based", "conditions": "100 μM, 16 hours, hypoxia 1% O2", "experimental": "(§5) The cell lines used were HepG2 (human hepatoma), HeLa (human cervical carcinoma) and L cells (mouse fibroblast) grown in minimal essential medium, with Earle's salts, supplemented with fetal bovine serum (10%), glutamine (2 mM), penicillin (50 units/ml) and streptomycin sulfate (50 μg/ml). For assay of endogenous gene expression, and for preparation of nuclear extracts, cells were grown to approximately 70% confluence. […]\n(§6) RNA was extracted, analysed by RNase protection, and quantitated as previously described (Pugh et al 1991). […]\n(§7) For assay of endogenous PGK-1 gene expression 50 μg of RNA extracted from HepG2 cells was hybridised with a riboprobe which consisted of 121 bp from the 5' end of the exon 3 of the human PGK-1 gene, together with 68 bp of adjacent intron (obtained by PCR of genomic DNA and cloning by standard methods). […] In these experiments a small quantity (0.5 μg) of RNA extracted from K562 cells (a human […] cell line which expresses a globin mRNA abundantly) was added to each sample before hybridisation, and the samples were probed concurrently with the α97 probe in addition to the PGK-1 or LDH-A probe. […]"}, "[5]": {"test_system": "endogenous mouse LDH-A gene expression in L cells", "assay": "RNA analysis of endogenous LDH-A gene expression", "format": "cell-based", "conditions": "100 μM, 16 hours, hypoxia 1% O2", "experimental": "as §5, §6, §7"}, "[6]": {"test_system": "M3 cells (HT1080 transfected with cytosine deaminase under PGK-1 promoter with 3 copies of P24)", "assay": "Hypoxia-induced pro-drug sensitisation, M3 cells", "format": "cell-based", "conditions": "16 hours hypoxic exposure, 24 hours drug, 96 hour growth delay", "method": "The PGK-1 hypoxia response element was evaluated within the context of the PGK-1 gene promoter (M3), the 9-27 gene promoter (9-3C) and the thymidine kinase gene promoter (sTK5). […] The promoters and PGK-1 hypoxia response elements were placed upstream of genes encoding the endothelial CD2 surface protein and the negative selectable marker cytosine deaminase. The 9-27 and thymidine kinase promoters were each used with 3 copies of the P18 PGK-1 element and the PGK-1 gene promoter was used with 3 copies of the P24 PGK-1 element. Transfected cells (9-3C and M3) as described in Example 9 were tested for sensitivity to 5-FC. Cells were subjected to hypoxic exposure (16 hours), followed by exposure to 5-FC or 5-FU (24 hours), followed by a 96 hour growth delay."}, "[7]": {"test_system": "9-3C cells (HT1080 transfected with cytosine deaminase under 9-27 promoter with 3 copies of P18)", "assay": "Hypoxia-induced pro-drug sensitisation, 9-3C cells", "format": "cell-based", "conditions": "16 hours hypoxic exposure, 24 hours drug, 96 hour growth delay", "experimental": "The PGK-1 hypoxia response element was evaluated within the context of the PGK-1 gene promoter (M3), the 9-27 gene promoter (9-3C) and the thymidine kinase gene promoter (sTK5).\nThe constructs were similar to those described in Example 7. The promoters and PGK-1 hypoxia response elements were placed upstream of genes encoding the endothelial CD2 surface protein and the negative selectable marker cytosine deaminase. The 9-27 and thymidine kinase promoters were each used with 3 copies of the P18 PGK-1 element and the PGK-1 gene promoter was used with 3 copies of the P24 PGK-1 element.\nas §4"}}}
{"smiles": "O=c1[nH]cc(F)c(=O)[nH]1", "note": "[5FU, 5-fluorouracil]", "values": [{"measurement": "difference in sensitivity of the cells", "setting": "[1]", "result": "very little difference"}, {"measurement": "difference in sensitivity between WT and transfectant", "setting": "[2]", "result": "relatively little difference"}, {"measurement": "difference in sensitivity following hypoxic or normoxic treatment", "setting": "[3]", "result": "no significant difference"}]}
{"smiles": "C[C@@H]1C[C@@H]([C@H](O)CC2CC(=O)NC(=O)C2)C(=O)[C@@H](C)C1", "note": "[cycloheximide]", "values": [{"measurement": "effect on hypoxic induction of gene expression", "setting": "[4]", "result": "abrogated the response to hypoxia"}, {"measurement": "effect on hypoxic induction of gene expression", "setting": "[5]", "result": "abrogated the response to hypoxia"}]}
{"smiles": "Nc1nc(=O)[nH]cc1F", "note": "[5-FC, 5-fluorocytosine]", "values": [{"measurement": "sensitivity post-hypoxia", "setting": "[6]", "result": "significantly more sensitive"}, {"measurement": "sensitivity post-hypoxia", "setting": "[7]", "result": "significantly more sensitive"}]}
